# Molecular target: T1, Isoform 2 of Nuclear receptor ROR-alpha (Alpha-2) (Homo sapiens, UniProt P35398)
# T1 sequence (P35398 whole entry): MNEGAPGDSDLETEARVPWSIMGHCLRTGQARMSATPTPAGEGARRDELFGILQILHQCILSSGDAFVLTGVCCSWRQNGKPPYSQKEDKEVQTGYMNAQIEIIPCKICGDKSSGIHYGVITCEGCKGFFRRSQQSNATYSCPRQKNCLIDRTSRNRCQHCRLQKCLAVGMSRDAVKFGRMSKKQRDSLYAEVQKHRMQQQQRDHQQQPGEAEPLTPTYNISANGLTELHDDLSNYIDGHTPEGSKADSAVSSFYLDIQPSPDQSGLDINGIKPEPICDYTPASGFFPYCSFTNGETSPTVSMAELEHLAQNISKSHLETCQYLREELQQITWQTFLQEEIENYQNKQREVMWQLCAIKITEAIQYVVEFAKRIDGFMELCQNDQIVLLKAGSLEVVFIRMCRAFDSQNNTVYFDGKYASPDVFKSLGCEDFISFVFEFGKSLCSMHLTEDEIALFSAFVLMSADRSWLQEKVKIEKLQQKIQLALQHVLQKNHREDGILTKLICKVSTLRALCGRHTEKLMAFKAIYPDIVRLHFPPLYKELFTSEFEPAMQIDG
# Assay: activators of RORA ligand-binding domain fusion – cell-based, CHO-K1, Gal4-RORA LBD, luciferase luminescence, counter-screen for SF-1 activator project, dose response (AID 675)
# Settings: not given
row,SMILES,EC50
1,CCOC(=O)CSc1nc2ccccc2c(=O)n1NC(=O)c1ccccc1 [2-[(3-benzamido-4-keto-quinazolin-2-yl)thio]acetic acid ethyl ester],0.933 µM
2,COc1ccc(CCC(=O)Nc2ccc(-c3noc(-c4ccc(OC)c(OC)c4)n3)cc2)cc1 [MLS000049572],2.46 µM
3,COc1ccc(C(=O)CC=Nc2cccc(C)n2)cc1OC,0.749 µM
4,"COc1cc(C2c3c(c(O)n(-c4ccccc4)c3O)ON2c2ccccc2)ccc1O (stereo not drawn) [3-(3-methoxy-4-oxidanyl-phenyl)-2,5-diphenyl-3a,6a-dihydro-3H-pyrrolo[3,4-d][1,2]oxazole-4,6-dione]",> 33 µM
5,"O=C(Nc1nccs1)c1ccc(COc2ccc(F)cc2)o1 [5-[(4-fluoranylphenoxy)methyl]-N-(1,3-thiazol-2-yl)furan-2-carboxamide]",4.71 µM
6,"COC(=O)c1ccc(C(=O)C(C#N)c2nc3ccccc3s2)cc1 (stereo not drawn) [4-[(2Z)-2-(3H-1,3-benzothiazol-2-ylidene)-2-cyano-1-oxoethyl]benzoic acid methyl ester]",1.61 µM
7,"COCCn1c(C)cc(C(=O)COC(=O)C23CC4CC(CC(O)(C4)C2)C3)c1C [[2-[1-(2-methoxyethyl)-2,5-dimethylpyrrol-3-yl]-2-oxoethyl] 3-hydroxyadamantane-1-carboxylate]",0.741 µM
8,"CCOC(=O)CSc1nc(-c2ccc3c(c2)OCO3)ccc1C#N [2-[[6-(1,3-benzodioxol-5-yl)-3-cyano-2-pyridinyl]thio]acetic acid ethyl ester]",5.65 µM
9,"Cc1cccc(-n2ccnc2SCC(=O)Nc2nccs2)c1 [2-[1-(3-methylphenyl)imidazol-2-yl]sulfanyl-N-(1,3-thiazol-2-yl)acetamide]",> 11 µM
10,"Cc1ccc(C2C(C(=O)c3cnn(-c4ccccc4)c3C)C(=O)C(=O)N2CCN(C)C)o1 (stereo not drawn) [(4E)-1-[2-(dimethylamino)ethyl]-4-[hydroxy-(5-methyl-1-phenyl-4-pyrazolyl)methylidene]-5-(5-methyl-2-furanyl)pyrrolidine-2,3-dione]",4.13 µM
11,"COc1ccc2nc3sc(C(=O)NCc4cccs4)c(N)c3cc2c1 [3-Amino-6-methoxy-thieno[2,3-b]quinoline-2-carboxylic acid (thiophen-2-ylmethyl)-amide]",> 0.407 µM
12,CC(=O)Nc1ccc(-c2cc3ccccc3o2)cc1 [MLS000036584],0.556 µM
13,CC(=O)c1c(C)[nH]c(C(=O)Nc2ccc3c(c2)OCCO3)c1C,0.4 µM
14,CCCOC(=O)c1ccc(NC(=O)C2CCCO2)cc1 (stereo not drawn) [4-(tetrahydrofuran-2-carbonylamino)benzoic acid propyl ester],> 3.67 µM

# Further lines, results first:
row,EC50,SMILES
1,4.14 µM,Cc1cnc(NC(=O)CSc2nnc(-c3ccccc3)o2)s1 [MLS000077990]
2,0.403 µM,CCCCC1CCC(c2nc(-c3ccccn3)no2)CC1 (stereo not drawn) [SMR000105468]
3,1.62 µM,COc1ccccc1Nc1nc2ccccc2[nH]1 [N-(2-methoxyphenyl)-1H-benzimidazol-2-amine]
4,0.356 µM,"CCOC(=O)c1cnc2c(-c3ccccc3)cnn2c1N [7-amino-3-phenyl-6-pyrazolo[1,5-a]pyrimidinecarboxylic acid ethyl ester]"
5,0.897 µM,"Cc1cc(C(=O)OCC(=O)N2CCc3ccccc32)c(C)o1 [2,5-dimethyl-3-furancarboxylic acid [2-(2,3-dihydroindol-1-yl)-2-oxoethyl] ester]"
6,> 1.22 µM,"CC(=NC1CCCC1)c1c(C)[nH]n(-c2nc3ccccc3s2)c1=O [(4Z)-2-(1,3-benzothiazol-2-yl)-4-[1-(cyclopentylamino)ethylidene]-5-methylpyrazol-3-one]"
7,3.72 µM,O=c1[nH]c2ccccc2nc1-c1cccs1 [SMR000068248]
8,3.92 µM,"Cc1csc2nc(CSc3nc4ccccc4o3)cn12 [2-[(3-methyl-6-imidazo[2,1-b]thiazolyl)methylthio]-1,3-benzoxazole]"

# Same assay, conditions: inactive by the depositor's call
row,EC50,SMILES
1,10.2 µM,Fc1cnc(N2CCOCC2)nc1N1CCc2ccccc21 [1-[5-fluoro-2-(4-morpholinyl)-4-pyrimidinyl]indoline]

# From BindingDB's records for doi:10.7270/Q24T6GSH (The Scripps Research Institute Molecular Screening Center, 2007)
